In series [1] the test system is Acanthamoeba castellanii T4 isolate (ATCC 50370) trophozoites. Kind of series: CellTiter-Glo 2.0 trophocidal assay, A. castellanii. The series is classed as cell-based. The conditions noted are these: Acanthamoeba castellanii, ATCC50370, 72 h, read-out: Acanthamoeba castellanii EC50 ± SD. The source says:
This isolate was purchased from American Type Culture Collection (ATCC). […] For sub-culturing, cells were mechanically harvested to detach the cells from the culture flasks.
In general terms: In ATP-based viability assays light output follows the ATP content of the culture.

Series [2] has as its system Balamuthia mandrillaris (CDC:V039; ATCC 50209) trophozoites. Kind of series: CellTiter-Glo 2.0 trophocidal assay, B. mandrillaris. It is filed as cell-based. The source says:
For sub-culturing, 0.25% Trypsin–EDTA (Gibco) cell detachment reagent was used to detach the cells from the culture flasks.

The test system of series [3] is Naegleria fowleri (ATCC 30215) trophozoites. In words: microbe, parasite or virus in culture. How it is done: Trophozoites were routinely grown axenically at 34°C, 5% CO2, in Nelson’s complete medium (NCM) in non-vented 75 cm^2 tissue culture flasks (Olympus), until the cells were 80–90% confluent. For sub-culturing, cells were placed on ice to detach the cells from the culture flasks. […] Complete NCM media is prepared by the addition of 10% fetal bovine serum (FBS) and 100 U/mL penicillin, and 100 μg/mL streptomycin antibiotics.
Trophozoites were routinely cultured as described above and only logarithmic trophozoites were used.
All assays were incubated at each of the parasites’ representative growth temperatures, described above, for 72 h. At the 72-h time point, 25 μL of CellTiter-Glo 2.0 reagent was added to all wells of the 96-well plates by hand. The plates were protected from light and contents were mixed using an orbital shaker at 300 rpm at room temperature for 2 min to induce cell lysis. After shaking, the plates were equilibrated at room temperature for 10 min to stabilize the luminescent signal. The ATP luminescent signal (relative light units; RLUs) were measured […] with a SpectraMax I3X plate reader (Molecular Devices, Sunnyvale, CA, United States). […] Values reported are from a minimum of three biological replicates with standard deviation.

Where [4] appears, read: logarithmic trophozoites, 72 h, n = 3.
[5] abbreviates: Balamuthia mandrillaris, ATCC50209, 72 h, logarithmic trophozoites, 72 h, n = 3, read-out: Balamuthia mandrillaris EC50 ± SD.
Where [6] appears, read: Naegleria fowleri, ATCC30215, 72 h, read-out: Naegleria fowleri EC50 ± SD, logarithmic trophozoites, 72 h, n = 3 (converted).
Where [7] appears, read: Balamuthia mandrillaris, ATCC50209, 72 h, read-out: Balamuthia mandrillaris EC50 ± SD, logarithmic trophozoites, 72 h, n = 3 (converted).
Setting [8] is: Naegleria fowleri, 72 h, read-out: Naegleria fowleri EC50 ± SD, logarithmic trophozoites, 72 h, n = 3 (converted).

We go through 26 molecules from paper PMC10206040, “Identification of novel anti-amoebic pharmacophores from kinase inhibitor chemotypes” (Frontiers in Microbiology, 2023).

Where two headings read alike, the source gives them in different places.

As usually defined, the EC50 is the concentration giving half of the maximal effect. `Nc1cc(-c2cc3c4c(n[nH]c4c2)Nc2ccccc2O3)ncn1` [Compound 1b]: the figures for the EC50 in series [1] (setting [4]) and in series [2] (setting [5]) were 12 ± 8.2 µM and 1.8 ± 0.46 µM, respectively. As to `Brc1ccc2nc(-c3ccccn3)c(Nc3ccc4c(c3)OCO4)n2c1` [Compound 3e], the EC50 in series [1] (setting [4]) and in series [3] (setting [6]) was above 20 µM in each case. As to `Cn1cc(-c2cnc3[nH]cc(-c4cccnc4)c3c2)cn1` [Compound 4d], the EC50 is at most 14 µM in series [3] (setting [6]) and 8.4 ± 0.71 µM in series [3] (read-out: Naegleria fowleri EC50 ± SD, logarithmic trophozoites, 72 h, n = 3). With `N#Cc1cccc(-c2c[nH]c3ncc(-c4ccncc4)cc23)c1` [Compound 4f], the EC50 in series [3] (setting [6]) was above 20 µM. As for `Cn1cc(-c2ccnc3[nH]c(-c4ccc(C5CCCN5)cc4)cc23)cn1` (stereo not drawn) [Compound 5b], the EC50 in series [2] (setting [7]) is 7.25 ± 0.7 µM. `Cn1cc(-c2ccnc3[nH]c(-c4ccc(C(N)=O)cc4)cc23)cn1` [Compound 5e]: in series [2] (setting [7]), the EC50 is 1.8 ± 0.24 µM. In the case of `FC(F)(F)CNc1nc(Nc2ccsc2)nc2[nH]cnc12` [Compound 6a], in series [3] (setting [6]), the EC50 was 11 ± 0.6 µM. Still for that read-out and setting: the figure for `c1nc2c(N3CCC3)nc(Nc3ccsc3)nc2[nH]1` [Compound 6b] is 14 ± 5.7 µM. On the same count and under the same terms, the same measure for `Cn1cc(Nc2nc(NCC(F)(F)F)c3ncn(C)c3n2)cn1` [Compound 6c]: above 20 µM. Still for that read-out and setting: the figure for `c1nc2c(NCCN3CCCC3)nc(Nc3ccsc3)nc2[nH]1` [Compound 6d] is above 20 µM. Consider `CN1CCN(c2ncc(-c3ccc4c(Nc5ccc(OCc6cccc(F)c6)c(Cl)c5)ccnc4c3)cn2)CC1` [Compound 7a], for which the “lipophilic ligand efficiency (LLE)” value in series [3] (N. fowleri, LLE calculated as pEC50-LogD7.4) is 1.40. For the same molecule, the EC50 in series [3] (setting [6]) is 16 ± 4.1 µM.

On to `CN1CC2(CCN(c3ncc(-c4ccc5c(Nc6cnccn6)ccnc5c4)cn3)C2)C1` [Compound 7b], for which, in series [2] (setting [5]), the EC50 is 1.4 ± 0.17 µM. Regarding `CC(=O)c1ccc2c(c1)c1cc(C(C)=O)ccc1n2CCNC1CCCCC1` [Compound 8a], in series [2] (setting [7]), the EC50 is 6.8 ± 0.1 µM. With `CC(=O)c1cc2c3cc(C(C)=O)c(O)cc3n(CCNC(C)C)c2cc1O` [Compound 8b], the EC50 was 8.8 ± 0.71 µM in series [3] (setting [6]) and 11 ± 0.35 µM in series [2] (setting [5]). `CC(=O)c1ccc2c(c1)c1cc(C(C)=O)ccc1n2CCN1CCCCC1` [Compound 8d]: the values for the EC50 in series [3] (setting [8]) and in series [2] (setting [7]) were 4.3 ± 0.22 µM and 12 ± 0.26 µM, respectively.

Regarding `CC(=O)c1cc2c3cc(C(C)=O)c(O)cc3n(CCCN(C)C)c2cc1O` [Compound 8e], the EC50 in series [3] (setting [6]) was 17 ± 0.65 µM. For the molecule `CC(=O)c1ccc2c(c1)c1cc(C(C)=O)ccc1n2CCCN(C)C` [Compound 8f], the EC50 was 17 ± 0.2 µM in series [3] (setting [6]) and 19 ± 1.1 µM in series [2] (setting [5]). As for `CC(=O)c1ccc2c(c1)c1cc(C(C)=O)ccc1n2CCNC1CCCCCC1` [Compound 8h], the EC50 in series [2] (setting [7]) was 7.3 ± 0.38 µM. As to `CC(=O)c1ccc2c(c1)c1cc(C(C)=O)ccc1n2CCN1CC(C)C1` [Compound 8i], the figures for the EC50 in series [3] (setting [8]) and in series [2] (setting [7]) were 18 ± 0.45 µM and 7.3 ± 0.28 µM, respectively. For `CC(=O)c1ccc2c(c1)c1cc(C(C)=O)ccc1n2CCN1CCCOCC1` [Compound 8j] the same measures were 10 ± 1.4 µM and 3.3 ± 0.24 µM. For `CC(=O)c1ccc2c(c1)c1cc(C(C)=O)ccc1n2CCNC1CCCC1` [Compound 8k], the EC50 in series [2] (setting [7]) was 7.4 ± 0.36 µM. With `CC(=O)c1ccc2c(c1)c1cc(C(C)=O)ccc1n2CCN1CCOC[C@H]1C` [Compound 8l], the EC50 in series [2] (setting [7]) was 12 µM; in series [2] (read-out: Balamuthia mandrillaris EC50 ± SD, logarithmic trophozoites, 72 h, n = 3), 13 ± 0.35 µM. For `Cc1n[nH]c(Nc2cccc3c2CCO3)c1C` [Compound S6, N-(2,3-Dihydrobenzofuran-4-yl)-3,4-dimethyl-1H-pyrazol-5-amine], the EC50 in series [1] and in series [2] (setting [7]) was above 20 µM each time.

Turning to `Cc1n[nH]c(Nc2cccc3c2CN(C)C3=O)c1C` [Compound S8, 4-((3,4-Dimethyl-1H-pyrazol-5-yl)amino)-2-methylisoindolin-1-one], the EC50 in series [1] and in series [2] (setting [7]) was above 20 µM each time. With `CC(=O)c1ccc2c(c1)c1cc(C(C)=O)ccc1n2CCN1CC(F)C1` [Compound S39], the half-maximal effective concentration (EC50) in series [1] and in series [2] (setting [7]) was above 20 µM in each case. For the molecule `CCC(C)(C)C(=O)O[C@H]1C[C@@H](C)C=C2C=C[C@H](C)[C@H](CC[C@@H]3C[C@@H](O)CC(=O)O3)[C@H]21` [Simvastatin, reference compound], the EC50 in series [2] (setting [5]) worked out at 6.9 ± 0.04 µM.
